The subject of data set [1] is male Wistar rats. Description: Experiment 1: weight loss, leukocytosis and neutrophilia in rats, roflumilast with or without diclofenac.
Procedure: For pharmacokinetic analysis (determining the plasma levels of the substances) on day 4 one rate from each group was used; these rats were no longer available for other parameters under investigation.
The average±standard deviation of the body weights at time t0 was 355±17 g.
At the end of the experiment (95 hours after t0 (=the time of the first administration on day 1, 0800)) the proportion of white blood cells (×1000 cells/μl blood, FIG. 1B, left-hand Figure) and the proportion of neutrophils (in % of white blood cells, FIG. 1B, right-hand Figure) were determined from the blood of 4 or 5 of the rats from the individual groups.
Data set [2] relates to male Wistar rats. Description: Experiment 4: diarrhoea and mesentery histopathology in rats, roflumilast with or without SC-560 or lumiracoxib. It counts as in vivo, rat. To be noted: p.o. four days, roflumilast 10 mg/kg at 1300, SC-560 or lumiracoxib 2 mg/kg at 0800 and 1700, 95 hours after t0; for Diarrhoea: animals affected out of animals; for Mesentery: Proliferation of fibroblasts / Mesentery: multifocal perivascular mononuclear infiltration (=inflammation parameter): animals affected out of animals examined.
Procedure: (§1) For pharmacokinetic analysis (determining the plasma levels of the substances) on day 4 one rat from each group was used; these rats were no longer available for other parameters under investigation.
(§2) At the end of the experiment (95 hours after t0 (=the time of the first administration on day 1, 0800 hours)) the rats from the individual groups were examined phenotypically and histopathologically for the presence of multifocal perivascular mononuclear infiltration (=inflammation parameter) in the mesentery and for the proliferation of fibroblasts in the mesentery. In addition, the occurrence of diarrhoea in the rats from the different groups was noted.

The test system of data set [3] is male Wistar rats. Description: Experiment 3: weight loss, leukocytosis and neutrophilia in rats, roflumilast with or without SC-560 or lumiracoxib. In kind it is in vivo, rat.
Data set [4] concerns male Wistar rats. Description: Experiment 2: diarrhoea and mesentery histopathology in rats, roflumilast with or without diclofenac. Conditions: roflumilast 10 mg/kg p.o. daily; six rats per group; between day 4 and day 5.
Procedure: as §1, §2

As to `O=C(O)Cc1ccccc1Nc1c(Cl)cccc1Cl` [diclofenac], the “parameters measured after the administration of the NSAID alone, compared with control” value in the data set with male Wistar rats [1] (diclofenac 1 mg/kg p.o. at 0800 and 1700, four days) was “very similar to the control groups”.
Regarding `COc1ccc(-n2nc(C(F)(F)F)cc2-c2ccc(Cl)cc2)cc1` [SC-560], the Diarrhoea in the data set on male Wistar rats [2] is recorded as 0/6. Also, in the data set with male Wistar rats [3] (SC-560 2 mg/kg p.o. at 0800 and 1700 co-administered with roflumilast 10 mg/kg, four days), the “protective effect on roflumilast-mediated weight loss, leukocytosis and neutrophilia” value is recorded as “absolutely no protective effect”.
Consider `Cc1ccc(Nc2c(F)cccc2Cl)c(CC(=O)O)c1` [lumiracoxib], for which, in the data set on male Wistar rats [2], the “Mesentery: Proliferation of fibroblasts” value is recorded as 0/5, the “Mesentery: multifocal perivascular mononuclear infiltration (=inflammation parameter)” value was 0/5 and the Diarrhoea was 0/6. Further, the “parameters measured after the administration of the NSAID alone, compared with control” value in the data set with male Wistar rats [3] (2 mg/kg p.o. at 0800 and 1700, four days) is “very similar to the control groups”.
For `O=C(Nc1c(Cl)cncc1Cl)c1ccc(OC(F)F)c(OCC2CC2)c1` [roflumilast], the death of rats result in the data set with male Wistar rats [1] (roflumilast 10 mg/kg p.o. daily, six rats per group, between day 4 and day 5) was “one rat”. For the same compound, the death of rats result in the data set on male Wistar rats [4] is on record as “one rat”. Also, in the data set with male Wistar rats [2], the “Mesentery: Proliferation of fibroblasts” value is reported as 5/5, the “Mesentery: multifocal perivascular mononuclear infiltration (=inflammation parameter)” value is listed as 5/5 and the Diarrhoea was 2/6. Besides, the “PDE4 inhibitor-mediated side effects such as weight loss, leukocytosis, neutrophilia and diarrhoea” value in the data set with male Wistar rats [3] (FIG. 2A, 2B, p.o. four days, roflumilast 10 mg/kg, lumiracoxib 2 mg/kg twice daily) was “observed”.

Values taken from patent US8759326B2, “Drug combinations containing PDE4 inhibitors and NSAIDs” (Boehringer Ingelheim International GmbH, priority 2009, dated 2014).
